We go through 67 compounds from paper PMC7802075 (ACS Infectious Diseases, 2020).

This assay addresses T1, LmjIPCS (inositol phosphorylceramide synthase from L. major) (Leishmania major, UniProt E9AFX2).
T1 sequence (E9AFX2 1-338): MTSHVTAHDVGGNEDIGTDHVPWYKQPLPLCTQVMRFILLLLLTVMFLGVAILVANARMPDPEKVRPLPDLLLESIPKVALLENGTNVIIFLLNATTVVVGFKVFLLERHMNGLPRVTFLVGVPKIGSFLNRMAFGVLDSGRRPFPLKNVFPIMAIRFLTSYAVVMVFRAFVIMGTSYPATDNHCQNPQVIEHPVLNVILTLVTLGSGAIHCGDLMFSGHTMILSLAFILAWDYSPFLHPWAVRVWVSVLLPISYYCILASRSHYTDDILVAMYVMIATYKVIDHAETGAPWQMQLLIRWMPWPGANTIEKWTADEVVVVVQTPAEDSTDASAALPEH
As to the kind of experiment: biochemical. The format is biochemical. On the set-up: inhibition: dose or concentration left out as unconfirmed. The conditions noted are these: for inhibition at 20000 µM: read-out: 20mM inhibition LmjIPCS; for inhibition: read-out: inhibition LmjIPCS.

Setting [1] is: screening of NINDS set, sheet Screen 1.
Where [2] appears, read: single concentration 20mM as printed, screening of NINDS set, sheet Screen 1.
Setting [3] is: NINDS set screen, single concentration printed as 20mM.

Where a name gives a salt, the structure may show the parent alone. Read-outs that look alike come from different tables or passages of the source. Where a SMILES comes first, the peptide text is derived from it. The star is where a group is joined. For = O=C*

Consider `CCOc1ccc(NC(C)=O)cc1` [PHENACETIN], for which the “20mM inhibition LmjIPCS” value is 38%.

With `Oc1cccc2cccnc12` [OXYQUINOLINE], the inhibition at 20000 µM is 14%.

Take `CC(=O)N[C@@H](Cc1c[nH]c2ccccc12)C(N)=O` [ACETYLTRYPTOPHANAMIDE]: the inhibition under setting [1] turned out to be 1.65%.

`CSCC[C@H](NC=O)C(=O)N[C@@H](Cc1ccccc1)C(=O)O` [N-FORMYLMETHIONYLPHENYLALANINE] (For-Met-Phe-OH): the “20mM inhibition LmjIPCS” value under setting [2] is listed as 5.35%.

Consider `CCN(CC)C(=S)SSC(=S)N(CC)CC`, for which the inhibition at 20000 µM is 16%.

In the case of `NS(=O)(=O)c1cc2c(cc1Cl)NCNS2(=O)=O` [HYDROCHLOROTHIAZIDE], the inhibition amounted to 13%.

On to `CCn1cc(C(=O)O)c(=O)c2cnc(N3CCCC3)nc21` [PIROMIDIC ACID], for which the inhibition was found to be 8.53%.

With `O=C(O)c1cc(O)c2c(c1)[C@H]([C@H]1c3cc(C(=O)O)cc(O)c3C(=O)c3c(O[C@@H]4O[C@H](CO)[C@@H](O)[C@H](O)[C@H]4O)cccc31)c1cccc(O[C@@H]3O[C@H](CO)[C@@H](O)[C@H](O)[C@H]3O)c1C2=O` [SENNOSIDE A], the “20mM inhibition LmjIPCS” value is recorded as 62%.

With `CC(=O)Oc1ccccc1C(=O)O` [ASPIRIN], the inhibition at 20000 µM amounted to 23%.

As for `CC(=O)NS(=O)(=O)c1ccc(N)cc1` [SULFACETAMIDE], the inhibition at 20000 µM was -1.63%.

For the compound `CC1(C)O[C@@H]2C[C@H]3[C@@H]4CCC5=CC(=O)C=C[C@]5(C)[C@@]4(F)[C@@H](O)C[C@]3(C)[C@]2(C(=O)CO)O1` [TRIAMCINOLONE ACETONIDE], the “20mM inhibition LmjIPCS” value came out at 37%.

In the case of `NCCc1c[nH]c2ccccc12` [TRYPTAMINE], the inhibition at 20000 µM stood at 27%.

`C[C@@H]1O[C@@H](O[C@H]2[C@H](Oc3cc(O)c4c(c3)O[C@H](c3ccc(O)cc3)CC4=O)O[C@H](CO)[C@@H](O)[C@@H]2O)[C@H](O)[C@H](O)[C@H]1O` [NARINGIN]: the inhibition at 20000 µM is 4.67%.

In the case of `COc1ccccc1N1CCNCC1` [1- (2-METHOXYPHENYL)PIPERAZINE], the “20mM inhibition LmjIPCS” value is recorded as 30%.

On to `CCn1cc(C(=O)O)c(=O)c2cc(F)c(N3CCNCC3)nc21` [ENOXACIN], for which the “20mM inhibition LmjIPCS” value under setting [3] was determined as 56%.

For `NC(N)=Nc1nc(CSCCC(N)=NS(N)(=O)=O)cs1` [FAMOTIDINE], the inhibition at 20000 µM turned out to be 14%.

For the compound `CN(C)c1nc(N(C)C)nc(N(C)C)n1` [ALTRETAMINE], the inhibition at 20000 µM amounted to 4%.

For `CCN(CC)CCNc1ccc(CO)c2sc3ccccc3c(=O)c12` [HYCANTHONE], the “20mM inhibition LmjIPCS” value is given as 46%.

For `Cc1cc(NC(=O)C2=C(O)c3ccccc3S(=O)(=O)N2C)no1` [ISOXICAM], the inhibition at 20000 µM is -3%.

`N[C@H](C(=O)O)[C@@H]1CC(Cl)=NO1` [ACIVICIN]: the “20mM inhibition LmjIPCS” value stood at 39%.

Consider `Cc1cc2cc3c(C)cc(=O)oc3c(C)c2o1` [TRIOXSALEN], for which the “20mM inhibition LmjIPCS” value under setting [3] came to 42%.

As to `O=C(O)c1cc(=O)c2c(OCC(O)COc3cccc4oc(C(=O)O)cc(=O)c34)cccc2o1` [CROMOLYN], the inhibition came out at 0.579%.

On to `NCCSSCCN` [CYSTAMINE], for which, under setting [1], the inhibition stood at 6.34%.

For the compound `O=C1NCC2(CCN(CCc3ccccc3)CC2)O1` [FENSPIRIDE], the “20mM inhibition LmjIPCS” value under setting [3] is listed as 47%.

In the case of `C[N+]1(CCCCC[N+]2(C)CCCC2)CCCC1` [PENTOLINIUM], under setting [1], the inhibition is 11%.

With `CO/N=C(\C(=O)N[C@@H]1C(=O)N2C(C(=O)O)=C(COC(N)=O)CS[C@H]12)c1ccco1` [CEFUROXIME], the inhibition (NINDS set screen) was 16%.

Turning to `CCN(CC)CCNC(=O)c1ccc(N)cc1` [PROCAINAMIDE], the inhibition is 19%.

For `CCOC(=O)N1CCC(=C2c3ccc(Cl)cc3CCc3cccnc32)CC1` [LORATADINE], the inhibition at 20000 µM turned out to be 21%.

In the case of `COc1ccc(CN(CCN(C)C)c2ccccn2)cc1` [PYRILAMINE], the inhibition worked out at 5.27%.

As for `CN(C)C(=O)Oc1cccc([N+](C)(C)C)c1` [NEOSTIGMINE BROMIDE], the inhibition at 20000 µM was 20%.

For the compound `COCCc1ccc(OCC(O)CNC(C)C)cc1` (centres unmarked) [METOPROLOL], the inhibition at 20000 µM amounted to 21%.

Take `C[C@@H]1C[C@H]2[C@@H]3CCC4=CC(=O)C=C[C@]4(C)[C@@]3(F)[C@@H](O)C[C@]2(C)[C@@]1(O)C(=O)CO` [DEXAMETHASONE]: the “20mM inhibition LmjIPCS” value is listed as 44% and the inhibition was -4%.

Consider `CC(=O)[C@@]1(O)CC[C@H]2[C@@H]3C=C(Cl)C4=CC(=O)[C@@H]5C[C@@H]5[C@]4(C)[C@H]3CC[C@@]21C` [CYPROTERONE], for which the “20mM inhibition LmjIPCS” value under setting [2] was 10%.

As to `CC(=O)Oc1ccc2c(c1)CC[C@@H]1[C@@H]2CC[C@]2(C)[C@@H](O)CC[C@@H]12` [ESTRADIOL ACETATE], under setting [3], the “20mM inhibition LmjIPCS” value is 68%.

With `COc1cc2c(cc1OC)-c1cc3ccc(OC)c(OC)c3c[n+]1CC2` [PALMATINE CHLORIDE], the inhibition is 16%.

For the compound `Cn1c(=O)[nH]c2ncn(C)c2c1=O` [PARAXANTHINE], under “NINDS set screen”, the inhibition was -5.66%.

`O=C(O)P(=O)(O)O` [FOSCARNET]: the inhibition is 2%.

Consider `NC12CC3CC(CC(C3)C1)C2` [AMANTADINE], for which the inhibition at 20000 µM was 30%.

Consider `CCCCc1nc(Cl)c(CO)n1Cc1ccc(-c2ccccc2-c2nn[nH]n2)cc1` [LOSARTAN], for which the inhibition is -2.81%.

For `C/C=C(\C)C(=O)O[C@H]1C[C@@H](OC(C)=O)[C@@]2(C(=O)OC)CO[C@H]3[C@@H](O)[C@@](C)([C@]45O[C@@]4(C)[C@H]4C[C@@H]5O[C@@H]5OC=C[C@@]54O)[C@H]4[C@]1(CO[C@]4(O)C(=O)OC)[C@@H]32` [AZADIRACHTIN], the inhibition at 20000 µM amounted to 3.53%.

As for `COc1ccc(Cl)cc1C(=O)NCCc1ccc(S(=O)(=O)NC(=O)NC2CCCCC2)cc1` [GLYBURIDE], the inhibition worked out at 13%.

Regarding `CC(=O)O[C@@H]1C[C@H]2C(C)(C)C(=O)C=C[C@]2(C)[C@H]2CC[C@@]3(C)[C@H](c4ccoc4)OC(=O)[C@H]4O[C@]43[C@@]21C` [GEDUNIN], the “20mM inhibition LmjIPCS” value under setting [3] turned out to be 48%.

As for `CCc1ccc(CCOc2ccc(CC3SC(=O)NC3=O)cc2)nc1` (centres unmarked) [PIOGLITAZONE], the inhibition came to 9%.

Regarding `CC1(C)S[C@@H]2[C@H](NC(=O)C(C(=O)O)c3ccccc3)C(=O)N2[C@H]1C(=O)O` (some centres unmarked) [CARBENICILLIN], the “20mM inhibition LmjIPCS” value is on record as 52%.

For `CN(C)CCOC(=O)C(c1ccccc1)C1(O)CCCC1` (centres unmarked) [CYCLOPENTOLATE], the inhibition (NINDS set screen) was 16%.

As for `COc1cccc(OC)c1OCCNCC1COc2ccccc2O1` (centres unmarked), the “20mM inhibition LmjIPCS” value is -4.65%.

Regarding `O=[N+]([O-])c1cccc2cn[nH]c12` [7-NITROINDAZOLE], the inhibition (NINDS set screen) is 24%.

As for `NC(=O)NO` [HYDROXYUREA], under setting [2], the “20mM inhibition LmjIPCS” value was 11%.

Turning to `COc1ccc(C(Cl)=C(c2ccc(OC)cc2)c2ccc(OC)cc2)cc1` [CHLOROTRIANISENE], the “20mM inhibition LmjIPCS” value under setting [3] was found to be 65%.

Regarding `CN1[C@H]2C[C@H](OC(=O)[C@H](CO)c3ccccc3)C[C@@H]1[C@@H](O)C2` [ANISODAMINE], the “20mM inhibition LmjIPCS” value stood at 16%.

Regarding `CC(=O)[C@@]1(O)CC[C@H]2[C@@H]3C[C@H](C)C4=CC(=O)C=C[C@]4(C)[C@@]3(F)[C@@H](O)C[C@@]21C` [FLUOROMETHOLONE], the inhibition at 20000 µM stood at 3%.

Turning to `C=C(C)[C@H]1Cc2c(ccc3c2O[C@@H]2COc4cc(OC)c(OC)cc4[C@@H]2C3=O)O1` [ROTENONE], the “20mM inhibition LmjIPCS” value was 43%.

Take `C[C@]12CC[C@@H](OS(=O)(=O)O)C[C@@H]1CC[C@@H]1[C@@H]2CC[C@]2(C)C(=O)CC[C@@H]12` [ANDROSTERONE Sulfate]: the “20mM inhibition LmjIPCS” value amounted to 33%.

For `COc1c(N2CCNC(C)C2)c(F)cc2c(=O)c(C(=O)O)cn(C3CC3)c12` (centres unmarked) [GATIFLOXACIN], the inhibition under setting [1] was determined as 2.29%.

As to `OC(CCN1CCCCC1)(c1ccccc1)c1ccccc1` [PRIDINOL], for the setting “NINDS set screen”, the inhibition amounted to 27%.

Turning to `CCN(CC)Cc1cc(Nc2ccnc3cc(Cl)ccc23)ccc1O` [AMODIAQUINE], the “20mM inhibition LmjIPCS” value came to 59%.

As to `CC1(C)[C@H]2CC[C@@]1(C)C(=O)C2` [1R-CAMPHOR], the “20mM inhibition LmjIPCS” value under setting [3] was 46%.

On to `COC(=O)[C@H]1[C@H]2C[C@H]3c4[nH]c5cc(OC)ccc5c4CCN3C[C@H]2C[C@@H](OC(=O)c2cc(OC)c(OC)c(OC)c2)[C@@H]1OC` [ISORESERPINE], for which the “20mM inhibition LmjIPCS” value was determined as 47%.

As to `CCOC(=O)[C@H](CCc1ccccc1)N[C@@H](C)C(=O)N1CCC[C@H]1C(=O)O`, the inhibition at 20000 µM was -20%.

Take `CN1CCC(=C2c3ccccc3CC(=O)c3sccc32)CC1` [KETOTIFEN]: the “20mM inhibition LmjIPCS” value came to 36%.

With `C[C@]12C=CC(=O)C=C1CC[C@H]1[C@@H]3C[C@@H](O)[C@](O)(C(=O)CO)[C@@]3(C)C[C@H](O)[C@@]12F` [TRIAMCINOLONE], the inhibition (NINDS set screen) is -1.57%.

On to `CCCn1c(=O)c2[nH]c(C3CCCC3)nc2n(CCC)c1=O`, for which the inhibition amounted to 2.66%.

Turning to `CC(=O)N[C@@H](CC(=O)N[C@@H](CCC(=O)O)C(=O)O)C(=O)O` [SPAGLUMIC ACID], the inhibition at 20000 µM turned out to be 1.82%.

Take `C/C=C(/C)C(=O)O[C@H]1CC[C@@]2(C)[C@@H]3CC[C@H]4[C@]5(O)C[C@H](O)[C@@]6(O)[C@@H](CN7C[C@@H](C)CC[C@H]7[C@@]6(C)O)[C@]5(O)C[C@@]42O[C@]13O` [CEVADINE]: the inhibition at 20000 µM turned out to be 10%.

`COc1cc2c(c(OC)c1OC)-c1ccc(=O)c(O)cc1[C@@H](NC(C)=O)CC2` [COLCHICEINE]: the inhibition at 20000 µM is 9%.

On to `C[C@](N)(Cc1ccc(O)c(O)c1)C(=O)O` [METHYLDOPA], for which the inhibition under setting [1] came to 8%.

For `CC(C)(Oc1ccc(CCNC(=O)c2ccc(Cl)cc2)cc1)C(=O)O` [BEZAFIBRATE], the inhibition is 11%.
